# Biological target: T1, hMAGL (Homo sapiens, UniProt Q99685)
# T1 sequence (Q99685 1-303): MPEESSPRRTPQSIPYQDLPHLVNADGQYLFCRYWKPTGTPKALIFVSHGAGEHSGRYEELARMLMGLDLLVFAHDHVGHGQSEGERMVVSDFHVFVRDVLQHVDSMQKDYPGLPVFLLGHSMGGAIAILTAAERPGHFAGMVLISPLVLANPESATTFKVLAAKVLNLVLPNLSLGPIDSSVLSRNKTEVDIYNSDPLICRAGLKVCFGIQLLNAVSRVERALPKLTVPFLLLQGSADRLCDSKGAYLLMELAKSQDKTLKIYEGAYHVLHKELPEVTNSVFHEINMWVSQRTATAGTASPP
# Experiment: 2-AG assay: MAGL inhibition, hydrolysis of 2-arachidonoylglycerol to arachidonic acid followed by mass spectrometry
# Type: biochemical
# Outline: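 Read-out is LC-MS/MS of arachidonic acid released from 2-arachidonoylglycerol (8 μM final), normalised to d8-arachidonic acid internal standard after acetonitrile quench. Enzyme […] and compound were pre-mixed 15 min, then reacted 30 min, both at RT, in Tris/EDTA buffer with 0.01% Tween-20 and 2.5% DMSO.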
row,IC50 [nM],SMILES
1,2.12,"Cn1ncc(C(F)(F)F)c1CN1CCC2(CC1)CN(C(=O)N1CC3(CC(n4cnc(C5(O)CC5)n4)C3)C1)C2 [Example 67, [6-[3-(1-hydroxycyclopropyl)-1,2,4-triazol-1-yl]-2-azaspiro[3.3]heptan-2-yl]-[7-[[2-methyl-4-(trifluoromethyl)pyrazol-3-yl]methyl]-2,7-diazaspiro[3.5]nonan-2-yl]methanone]"
2,14.8,O=C(N1CC2(CC(Cn3ccnc3C(F)(F)F)C2)C1)N1CC2(CC(n3cnc(C4(O)CC4)n3)C2)C1 [Example 146]
3,2.9,"Cn1cc(C(F)(F)F)c(CC2CC3(C2)CN(C(=O)N2CC4(CC(n5cnc(C6(O)CC6)n5)C4)C2)C3)n1 [Example 289, [6-[3-(1-hydroxycyclopropyl)-1,2,4-triazol-1-yl]-2-azaspiro[3.3]heptan-2-yl]-[6-[[1-methyl-4-(trifluoromethyl)pyrazol-3-yl]methyl]-2-azaspiro[3.3]heptan-2-yl]methanone]"
4,10.5,"O=C(N1CC2(CC(n3cnc(C(F)(F)F)n3)C2)C1)N1CC2(CN(Cc3sncc3C(F)(F)F)C2)C1 [Example 178, [6-[[4-(trifluoromethyl)isothiazol-5-yl]methyl]-2,6-diazaspiro[3.3]heptan-2-yl]-[6-[3-(trifluoromethyl)-1,2,4-triazol-1-yl]-2-azaspiro[3.3]heptan-2-yl]methanone]"
5,37.1,Cc1nc(C(F)(F)F)c(CN2CC3(C2)CN(C(=O)N2CC4(CC(n5cnc(C(F)(F)F)n5)C4)C2)C3)s1 [Example 85]
6,2.65,"Cc1nc(C(F)(F)F)c(CN2CC3(C2)CN(C(=O)N2CC4(CC(n5cnc(C6CC6)n5)C4)C2)C3)s1 [Example 86, [6-(3-cyclopropyl-1,2,4-triazol-1-yl)-2-azaspiro[3.3]heptan-2-yl]-[6-[[2-methyl-4-(trifluoromethyl)thiazol-5-yl]methyl]-2,6-diazaspiro[3.3]heptan-2-yl]methanone]"
7,5.1,"CC(C)(C)c1ncc(CN2CC3(C2)CN(C(=O)N2CC4(CC(n5cnc(C6CC6)n5)C4)C2)C3)s1 [Example 57, [6-[(2-tert-butylthiazol-5-yl)methyl]-2,6-diazaspiro[3.3]heptan-2-yl]-[6-(3-cyclopropyl-1,2,4-triazol-1-yl)-2-azaspiro[3.3]heptan-2-yl]methanone]"
8,123,"Cn1c(CN2CC3(C2)CN(C(=O)N2CC4(CC(n5cnc(C(F)(F)F)n5)C4)C2)C3)nnc1C(F)(F)F [Example 314, [6-[[4-methyl-5-(trifluoromethyl)-1,2,4-triazol-3-yl]methyl]-2,6-diazaspiro[3.3]heptan-2-yl]-[6-[3-(trifluoromethyl)-1,2,4-triazol-1-yl]-2-azaspiro[3.3]heptan-2-yl]methanone]"
9,8.8,"Cc1onc(C2CC2)c1CN1CC2(C1)CN(C(=O)N1CC3(CC(n4cnc(C5CC5)n4)C3)C1)C2 [Example 268, [6-[(3-cyclopropyl-5-methyl-isoxazol-4-yl)methyl]-2,6-diazaspiro[3.3]heptan-2-yl]-[6-(3-cyclopropyl-1,2,4-triazol-1-yl)-2-azaspiro[3.3]heptan-2-yl]methanone]"
10,11.8,"Cn1nc(CC2CC3(C2)CN(C(=O)N2CC4(CC(n5cnc(C6(N)CC6)n5)C4)C2)C3)cc1C(F)(F)F [Example 330, [6-[3-(1-aminocyclopropyl)-1,2,4-triazol-1-yl]-2-azaspiro[3.3]heptan-2-yl]-[6-[[l-methyl-5-(trifluoromethyl)pyrazol-3-yl]methyl]-2-azaspiro[3.3]heptan-2-yl]methanone]"
11,0.29,"Cc1cc(C2CC2)n(CC2CC3(C2)CN(C(=O)N2CC4(CC(n5cnc(C6CC6)n5)C4)C2)C3)n1 [Example 132, [6-[(5-cyclopropyl-3-methyl-pyrazol-1-yl)methyl]-2-azaspiro[3.3]heptan-2-yl]-[6-(3-cyclopropyl-1,2,4-triazol-1-yl)-2-azaspiro[3.3]heptan-2-yl]methanone]"
